Source: patent US20070254917A1, “INTRACELLULAR RECEPTOR MODULATOR COMPOUNDS AND METHODS” (priority 2004, published 2007)

molecular target: T1, human glucocorticoid receptor protein (GR) (Homo sapiens, UniProt P04150); experiment: Glucocorticoid binding assay ([3H]dexamethasone displacement, GR lysate); details: baculovirus-expressed GR lysate from Sf21 cells; 2-4 nM [3H]dexamethasone; 16 hours at 4° C.; Cheng-Prusoff from IC50
T1 construct: made in house; host or cells: Sf21 insect cells (baculovirus)
T1 sequence (P04150 1-777): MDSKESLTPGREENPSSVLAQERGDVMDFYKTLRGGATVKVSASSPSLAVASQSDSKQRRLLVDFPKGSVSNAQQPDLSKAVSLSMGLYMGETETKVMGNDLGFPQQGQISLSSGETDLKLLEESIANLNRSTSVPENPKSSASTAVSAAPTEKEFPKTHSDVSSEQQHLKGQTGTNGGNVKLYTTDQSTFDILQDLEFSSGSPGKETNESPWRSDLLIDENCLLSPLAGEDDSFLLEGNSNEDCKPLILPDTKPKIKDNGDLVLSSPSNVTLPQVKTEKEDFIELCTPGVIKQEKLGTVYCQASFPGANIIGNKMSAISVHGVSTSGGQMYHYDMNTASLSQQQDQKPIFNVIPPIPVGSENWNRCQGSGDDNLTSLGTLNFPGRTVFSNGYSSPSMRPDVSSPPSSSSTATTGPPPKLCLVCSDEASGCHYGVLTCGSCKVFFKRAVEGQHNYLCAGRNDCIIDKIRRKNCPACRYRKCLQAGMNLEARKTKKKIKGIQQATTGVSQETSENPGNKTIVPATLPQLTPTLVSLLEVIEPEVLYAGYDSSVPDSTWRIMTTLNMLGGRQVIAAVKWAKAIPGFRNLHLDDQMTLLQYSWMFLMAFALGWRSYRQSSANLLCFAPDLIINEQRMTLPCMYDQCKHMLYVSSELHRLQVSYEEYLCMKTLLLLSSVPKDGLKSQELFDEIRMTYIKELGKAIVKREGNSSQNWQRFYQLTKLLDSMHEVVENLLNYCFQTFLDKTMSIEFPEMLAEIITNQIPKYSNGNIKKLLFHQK
Experimental: A baculovirus expression plasmid comprising cDNA encoding the human glucocorticoid receptor protein (GR) was prepared using standard techniques. […] That expression plasmid was co-transfected together with wild type Autographa californica multiple nuclear polyhedrosis virus DNA into Spodopter frugiperda-21 (Sf-21) cells to generate recombinant virus comprising GR cDNA. […] That recombinant virus comprising GR cDNA was collected.
A suspension culture of uninfected Sf21 cells was grown to a density of 1.2×10^6 cells/ml and then infected with the recombinant virus comprising GR cDNA at a multiplicity of infection of 2. Those infected Sf21 cells were incubated for 48 hours and then collected by centrifugation at 1000×g for 10 minutes at 4° C. The resulting cell pellets were resuspended in lysis buffer (50 mM Potassium Phosphate buffer, pH 7.0, 10 mM Monothioglycerol, 5 mM DTT, 20 mM Sodium Molybdate, 1 mM PMSF, 1 μg/mL aprotinin, and 10 μg/mL leupeptin) and incubated for 15 minutes on ice. Those resuspended cell pellets were homogenized using a Dounce homogenizer and a B pestle. A volume of 2 M KCl was added to the homogenized cell pellets to a final concentration of 0.4 M. The resulting GR lysates were centrifuged at 100,000×g for 60 min at 4° C. and stored for use in binding assays.
Binding assay samples were prepared in separate mini-tubes in a 96-well format at 4° C. […] Each reference compound and test compound was assayed at varying concentrations, ranging from 0 to 10^−5 M. Each concentration of each reference compound and each test compound was assayed in triplicate. The assay samples were incubated for 16 hours at 4° C.
After incubation, 200 μl of 6.25% hydroxylapatite in assay buffer was added to each assay sample to precipitate the protein. The assay samples were then centrifuged and the supernatants were discarded. The resulting pellets were washed twice with assay buffer lacking DTT. Radioactivity in counts per minute (CPM) of each washed pellet was determined by liquid scintillation counter (MicroBeta™, Wallach).

Row | Ki [nM] | Structure (SMILES)
1 | 34 | COc1cccc(OC)c1-c1cc(C)c2c(c1Cl)C(C)CC(C)(C)N2 (racemic) [Compound 104, (±)-5-Chloro-6-(2,6-dimethoxyphenyl)-1,2,3,4-tetrahydro-2,2,4,8-tetramethylquinoline]
2 | 4 | Cc1cc(-c2csc3ccccc23)c(Cl)c2c1NC(C)(C)CC2C (racemic) [Compound 109, (±)-6-(Benzothiophen-3-yl)-5-chloro-1,2,3,4-tetrahydro-2,2,4,8-tetramethylquinoline]
3 | 420 | Cc1cc(-c2cc3ccccc3s2)c(Cl)c2c1NC(C)(C)CC2C (racemic) [Compound 116, (±)-6-(Benzothiophen-2-yl)-5-chloro-1,2,3,4-tetrahydro-2,2,4,8-tetramethylquinoline]
4 | 22 | Cc1cc(-c2ccccc2Cl)c(Cl)c2c1NC(C)(C)CC2C (racemic) [Compound 118, (±)-5-Chloro-6-(2-chlorophenyl)-1,2,3,4-tetrahydro-2,2,4,8-tetramethylquinoline]
5 | 97 | CC(=O)c1ccccc1-c1cc(C)c2c(c1Cl)C(C)CC(C)(C)N2 (racemic) [Compound 119, (±)-6-(2-Acetylphenyl)-5-chloro-1,2,3,4-tetrahydro-2,2,4,8-tetramethylquinoline]
6 | 14 | COc1ccc(Cl)cc1-c1cc(C)c2c(c1Cl)C(C)CC(C)(C)N2 (racemic) [Compound 121, (±)-5-Chloro-6-(5-chloro-2-methoxyphenyl)-1,2,3,4-tetrahydro-2,2,4,8-tetramethylquinoline]
7 | 78 | Cc1cc(-c2ccccc2[N+](=O)[O-])c(Cl)c2c1NC(C)(C)CC2C (racemic) [Compound 122, (±)-5-Chloro-1,2,3,4-tetrahydro-2,2,4,8-tetramethyl-6-(2-nitrophenyl)quinoline]
8 | 81 | Cc1cc(-c2cccc(C(F)(F)F)c2F)c(Cl)c2c1NC(C)(C)CC2C (racemic) [Compound 130, (±)-5-Chloro-6-[2-fluoro-3-(trifluoromethyl)phenyl]-1,2,3,4-tetrahydro-2,2,4,8-tetramethylquinoline]
9 | 8.8 | Cc1cc(-c2cccc3ccccc23)c(Cl)c2c1NC(C)(C)CC2C (racemic) [Compound 135, (±)-5-Chloro-1,2,3,4-tetrahydro-2,2,4,8-tetramethyl-6-(naphthal-1-yl)quinoline]
10 | 2 | Cc1cc(-c2ccc(F)c3c(C)c[nH]c23)c(Cl)c2c1NC(C)(C)CC2C (racemic) [Compound 147, (±)-5-Chloro-6-(4-fluoro-3-methylindol-7-yl)-1,2,3,4-tetrahydro-2,2,4,8-tetramethylquinoline]
11 | 3.6 | COc1c(O)cccc1-c1cc(C)c2c(c1Cl)C(C)CC(C)(C)N2 (racemic) [Compound 151, (±)-5-Chloro-1,2,3,4-tetrahydro-6-(3-hydroxy-2-methoxyphenyl)-2,2,4,8-tetramethylquinoline]
12 | 0.4 | Cc1cc(-c2cccc3c2CCC3=NO)c(Cl)c2c1NC(C)(C)CC2C (racemic) [Compound 154, (±)-5-Chloro-6-(1-hydroxyiminoindan-4-yl)-1,2,3,4-tetrahydro-2,2,4,8-tetramethylquinoline]
13 | 1.4 | Cc1cc(-c2cccc(C#N)c2C)c(Cl)c2c1NC(C)(C)CC2C (racemic) [Compound 155, (±)-5-Chloro-6-(3-cyano-2-methylphenyl)-1,2,3,4-tetrahydro-2,2,4,8-tetramethylquinoline]
14 | 2.9 | COc1c(-c2cc(C)c3c(c2Cl)C(C)CC(C)(C)N3)cccc1[N+](=O)[O-] (racemic) [Compound 156, (±)-5-Chloro-1,2,3,4-tetrahydro-6-(2-methoxy-3-nitrophenyl)-2,2,4,8-tetramethylquinoline]
15 | 130 | Cc1cc(-c2ccsc2)c(Cl)c2c1NC(C)(C)C(O)C2C (racemic) [Compound 160, (±)-5-Chloro-1,2,3,4-tetrahydro-3β-hydroxy-2,2,4α,8-tetramethyl-6-(thiophen-3-yl)quinoline]
16 | 3.3 | Cc1cc(-c2c(C)noc2C)c(Cl)c2c1NC(C)(C)C(O)C2C (racemic) [Compound 164, (±)-5-Chloro-6-(3,5-dimethylisoxazol-4-yl)-1,2,3,4-tetrahydro-3β-hydroxy-2,2,4α,8-tetramethylquinoline]
17 | 2.7 | COc1c(C#N)cccc1-c1cc(C)c2c(c1Cl)C(C)C(O)C(C)(C)N2 (racemic) [Compound 165, (±)-5-Chloro-6-(3-cyano-2-methoxyphenyl)-1,2,3,4-tetrahydro-3β-hydroxy-2,2,4α,8-tetramethylquinoline]
18 | 2.6 | COc1c(C#N)cccc1-c1cc(C)c2c(c1Cl)C(C)C(=O)C(C)(C)N2 (racemic) [Compound 179, (±)-5-Chloro-6-(3-cyano-2-methoxyphenyl)-1,4-dihydro-2,2,4,8-tetramethyl-2H-quinolin-3-one]
19 | 2.5 | CC(C)=CCC1(C)C(=O)C(C)(C)Nc2c(C)cc(-c3c(C)noc3C)c(Cl)c21 (racemic) [Compound 185, (±)-5-Chloro-4-(3,3-dimethylallyl)-6-(3,5-dimethylisoxazol-4-yl)-1,4-dihydro-2,2,4,8-tetramethyl-2H-quinolin-3-one]
20 | 4.8 | COc1c(C#N)cccc1-c1cc(C)c2c(c1Cl)C(C)C(O)C(C)(C)N2 (racemic) [Compound 191, (±)-5-Chloro-6-(3-cyano-2-methoxyphenyl)-1,2,3,4-tetrahydro-3α-hydroxy-2,2,4α,8-tetramethylquinoline]
21 | 9.4 | Cc1cc(-c2c(C)noc2C)c(Cl)c2c1NC(C)(C)C(O)C2C (racemic) [Compound 192, (±)-5-Chloro-6-(3,5-dimethylisoxazol-4-yl)-1,2,3,4-tetrahydro-3α-hydroxy-2,2,4α,8-tetramethylquinoline]
22 | 13 | Cc1cc(-c2csc3ccccc23)c(Cl)c2c1NC(C)(C)C(O)C2C (racemic) [Compound 194, (±)-6-(Benzothiophen-3-yl)-5-chloro-1,2,3,4-tetrahydro-3α-hydroxy-2,2,4α,8-tetramethylquinoline]
23 | 56 | CC(C)=CCOc1c(-c2cc(C)c3c(c2Cl)C(C)CC(C)(C)N3)cccc1[N+](=O)[O-] (racemic) [Compound 203, (±)-5-Chloro-1,2,3,4-tetrahydro-2,2,4,8-tetramethyl-6-[2-(methylbut-2-enyloxy)-3-nitrophenyl]quinoline]
24 | 26 | Cc1cc(-c2cccc3c2OCC(=O)N3)c(Cl)c2c1NC(C)(C)CC2C (racemic) [Compound 204, (±)-6-(2H-1,4-Benzoxazin-3(4H)-on-8-yl)-5-chloro-1,2,3,4-tetrahydro-2,2,4,8-tetramethylquinoline]
25 | 87 | Cc1cc(-c2cccc3c2OCC(=O)N3C)c(Cl)c2c1NC(C)(C)CC2C (racemic) [Compound 205, (±)-5-Chloro-1,2,3,4-tetrahydro-2,2,4,8-tetramethyl-6-(4-methyl-2H-1,4-benzoxazin-3(4H)-on-8-yl)quinoline]
26 | 5.7 | Cc1cc(-c2cccc3c2NCC3)c(Cl)c2c1NC(C)(C)CC2C (racemic) [Compound 210, (±)-5-Chloro-1,2,3,4-tetrahydro-6-(indolin-7-yl)-2,2,4,8-tetramethylquinoline]
27 | 5.9 | Cc1cc(-c2cccc3ccccc23)c(Cl)c2c1NC(C)(C)CC2(C)O (racemic) [Compound 215, (±)-5-Chloro-1,2,3,4-tetrahydro-4-hydroxy-2,2,4,8-tetramethyl-6-(naphthal-1-yl)quinoline]
